Data published in article PMC6248931 (Science Advances, 2018).

Experiments:
influenza virus = settings: cited from earlier work
HIV [1] = settings: cited from earlier work
HIV [2] = settings: human, in vivo; cited from earlier work
HIV-1 pseudovirions = format: cell-based; settings: 1 μM
HIV HR1-HR2 interaction = format: binding
HIV HR2 peptide = HIV HR2 peptide (Human immunodeficiency virus type 1, UniProt P03377); format: binding
Sequence of HIV HR2 peptide (P03377 633-666 limits assumed): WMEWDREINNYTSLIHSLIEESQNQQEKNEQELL

Structure (SMILES): CC1(C)CC[C@]2(C(=O)O)CC[C@]3(C)C(=CC[C@@H]4[C@@]5(C)CC[C@H](O)C(C)(C)[C@@H]5CC[C@]43C)[C@@H]2C1 [OA, oleanolic acid]
- inhibitory effect on influenza virus entry (influenza virus): significant inhibitory effect
- inhibitory activity against HIV infection (HIV [1]): show inhibitory activity

Structure (SMILES): C=C(C)[C@@H]1CC[C@]2(C(=O)O)CC[C@]3(C)[C@H](CC[C@@H]4[C@@]5(C)CC[C@H](O)C(C)(C)[C@@H]5CC[C@]43C)[C@@H]12 [BA, betulinic acid]
- inhibitory activity against HIV infection (HIV [1]): show inhibitory activity

Structure (SMILES): C=C(C)[C@@H]1CC[C@]2(C(=O)O)CC[C@]3(C)[C@H](CC[C@@H]4[C@@]5(C)CC[C@H](OC(=O)CC(C)(C)C(=O)O)C(C)(C)[C@@H]5CC[C@]43C)[C@@H]12 [bevirimat]
- efficacy in clinical trials (HIV [2]): promising efficacy

Structure (SMILES): C=C(C)[C@@H]1CC[C@]2(C(=O)NCCCCCCCC(=O)N(CCCC3(C)N=N3)CC(=O)O)CC[C@]3(C)C(CCC4[C@@]5(C)CC[C@H](O)C(C)(C)C5CC[C@]43C)C12 (stereo partly shown) [Y20]
- inhibitory activity on the infectivity of HIV-1 pseudovirions (HIV-1 pseudovirions): exhibited inhibitory activity
- effect on HIV-HR1/HIV-HR2 affinity (in words) (HIV HR1-HR2 interaction): significantly reduced their affinity
- binding to HIV-HR2 (in words) (HIV HR2 peptide): binds tightly
